Measured values as given in US20030152500A1, “Rotor-stator apparatus and process for the formation of particles” (priority 2001, published 2003).

Tests used:
[1] = Primary crystal/particle size by image analysis; type: physicochemical; conditions: Example 8: 15% (w/w) glycine 14 mL/min, ethanol 190 mL/min, anhydrous ethanol quench
Protocol: The same procedure as in Example 7 was used, except the feed rate of the 15% (w/w) aqueous glycine solution was 14 mL/min and the feed rate of the anhydrous ethanol antisolvent was 190 mL/min. A quenching solution of anhydrous ethanol (>99%) was used.
Salicylic acid […] was dissolved in anhydrous ethanol (>99%) at a concentration of 24.8% (w/w). This solution was fed to the same apparatus as configured in Example 1. Water was co-fed as the antisolvent.

[2] = Crystal size of rotor-stator exit stream observed under videomicroscope

NCC(=O)O [glycine, Glycine]
mean size of primary crystals [1]: 4.4 μm | mean size of crystals ([2]; Example 1: 5% (w/w) aqueous glycine 190 mL/min, ethanol 190 mL/min, 10,000 rpm, quench 50% water 50% ethanol): 25 μm | mean size of crystals ([2]; Example 3: as Example 1, rotor-stator speed 5,000 rpm): 40 μm | mean size of crystals ([2]; Example 4: as Example 1, 15% (w/w) glycine solution): 40 μm | mean size of crystals ([2]; Example 5: as Example 1, 15% (w/w) glycine, 5,000 rpm): 70 μm | mean length of crystals ([2]; Example 6: as Example 1, 15% (w/w) glycine, 0 rpm): 300 μm | mean size of crystals ([2]; Example 7: 15% (w/w) glycine 21 mL/min, ethanol 190 mL/min): 6 μm
